Consider 14 molecules from US20240261274A1, “TREATMENT OF MYC-DRIVEN CANCERS WITH GSPT1 DEGRADERS” (MONTE ROSA THERAPEUTICS, INC., priority 2021, published 2024).

Common to all, as to format: cell-based
Settings in all cases: MM1 S cells, 0.3, 3 and 30 μM, 6 hours

One experiment deals with T1, ZFP91 (Homo sapiens, UniProt Q96JP5+Q96SW2).
T1 construct: endogenous in cells; host or cells: MM1 S (ATCC CRL-2974)
Kind of experiment: Selectivity western blot assay in MM1 S cells, ZFP91. Also noted: key: A represents no degradation observed at 30 μM; B represents trace degradation at 30 μM (below 20%); C represents weak degradation at 30 μM (below 50%); D represents degradation at 30 μM (>90%); E represents degradation at 3 μM (>90%); F represents degradation at 0.3 μM (>90%). How it is done:
(§1) MM1 S cells were purchased from ATCC (cat. Number CRL-2974), sub-cultured in 90% RPMI 1640 with 10% FBS, supplemented with 1×P/S and incubated at 37° C., 5% CO2. Compounds were stored as 10 mM DMSO stock. For the assay, MM1 S cells (3 million cells/well) were plated in 6-well plates and incubated over night. Cells were treated with respective compounds using a serial dilution: 0.3 μM, 3 μM and 30 μM as well as a vehicle only (DMSO) control for 6 hours. Media with suspension cells was subsequently transferred to 15 mL conical tubes, wells rinsed twice with ice-cold PBS and merged with cell suspension in respective 15 mL conical tube. Cells were spinned down, supernatant aspirated, pellets resuspended in ice-cold PBS and transferred to microtubes. Cells were spinned down, supernatant aspirated and pellets resuspended in 120 μL RIPA lysis buffer supplemented with protease and phosphatase inhibitors. Cell lysates were incubated on ice for 20 minutes followed by centrifugation at >20,000×g for 5 min. Supernatants were transferred to fresh microtubes and stored at −80° C. Total protein concentration was determined using a BCA assay with a BSA standard curve and concentration of all samples was adjusted to 1 mg/mL. 25 μL 4×LDS sample buffer supplemented with 100 mM DTT was added to 75 μL sample. Samples were centrifuged (8,000×g, 1 min) and incubated at 95° C. for 5 min followed by another centrifugation step (8,000×g, 1 min). 20 μL of each sample was loaded on a 4-12% gel alongside a protein molecular weight marker. Gels were run in the presence of MOPS buffer at 80 Volts for 30 min, followed by 120 Volts for 1.5 h and proteins subsequently transferred onto nitrocellulose membranes at 20 Volts for 7 min using an iBlot2 Gel Transfer Device. Membranes were then cut horizontally into two pieces, covering 80-50 kDa and 50-25 kDa. Blocking the membranes was performed by gently shaking in 5% (w/v) skim milk in TSB-T for 1 hr at room temperature. All primary antibodies were used at a 1/1000 in 5% (w/v) BSA dissolved in TBST and incubated with membranes over night at 4° C. After three washes with 1×TBST for 5 min, HRP-coupled secondary antibodies diluted in 5% (w/v) BSA/TBST (Goat Anti-Rb IgG, dil. 1/10,000; Goat Anti-Mouse IgG, dil. 1/5000) were added for 1 hr at room temperature. After three washes with 1×TBST (5 minutes each), membranes were incubated with ECL reagent for 1 min at room temperature. Chemiluminescence signals were then detected using a LAS-4000 system with default settings and signals quantified using Image Studio Lite software (version 5.2). Membrane parts previously incubated with antibody against CK1 alpha were stripped off antibodies by incubating with stripping buffer for 30 minutes followed by three washed with TBST (5 min each), blocking with 5% (w/v) skim milk for 1 hr, and incubation with primary antibody against uGAPDH overnight at 4° C. Subsequent washes, incubation with secondary antibody and signal acquisition were performed as described above.

For the next experiment, the target named is GSPT1 (Homo sapiens, UniProt P15170+Q96SW2). Nature of the experiment: Selectivity western blot assay in MM1 S cells, GSPT1. Also noted: endogenous in cells; host or cells: MM1 S (ATCC CRL-2974). How it is done: as §1
Sequence of GSPT1 (P15170 whole entry): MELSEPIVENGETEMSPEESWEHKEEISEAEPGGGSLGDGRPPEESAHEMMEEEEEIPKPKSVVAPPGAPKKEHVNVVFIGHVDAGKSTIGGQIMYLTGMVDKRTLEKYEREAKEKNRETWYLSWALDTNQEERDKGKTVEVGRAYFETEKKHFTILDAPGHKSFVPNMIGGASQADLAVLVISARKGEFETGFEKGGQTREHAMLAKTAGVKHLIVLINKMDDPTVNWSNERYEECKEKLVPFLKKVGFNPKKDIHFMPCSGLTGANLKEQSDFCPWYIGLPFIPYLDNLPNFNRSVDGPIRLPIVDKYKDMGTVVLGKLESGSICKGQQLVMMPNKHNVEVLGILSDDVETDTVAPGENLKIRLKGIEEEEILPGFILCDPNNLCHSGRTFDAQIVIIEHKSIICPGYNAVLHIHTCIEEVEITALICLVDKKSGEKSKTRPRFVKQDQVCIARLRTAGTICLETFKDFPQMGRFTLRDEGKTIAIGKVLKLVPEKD
Sequence of GSPT1 (Q96SW2 whole entry): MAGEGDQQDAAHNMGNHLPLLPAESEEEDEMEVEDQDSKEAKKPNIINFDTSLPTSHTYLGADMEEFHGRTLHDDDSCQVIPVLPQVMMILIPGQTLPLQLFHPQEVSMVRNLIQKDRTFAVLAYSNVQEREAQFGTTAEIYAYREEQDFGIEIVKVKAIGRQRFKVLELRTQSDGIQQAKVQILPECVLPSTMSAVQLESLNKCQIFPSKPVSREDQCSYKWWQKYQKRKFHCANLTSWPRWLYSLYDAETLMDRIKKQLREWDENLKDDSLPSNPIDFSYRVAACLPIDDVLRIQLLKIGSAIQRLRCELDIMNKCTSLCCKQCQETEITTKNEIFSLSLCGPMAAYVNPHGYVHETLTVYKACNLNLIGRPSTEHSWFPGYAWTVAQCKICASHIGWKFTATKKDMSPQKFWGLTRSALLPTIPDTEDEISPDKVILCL
Sequence of GSPT1 (Q16531 whole entry partner): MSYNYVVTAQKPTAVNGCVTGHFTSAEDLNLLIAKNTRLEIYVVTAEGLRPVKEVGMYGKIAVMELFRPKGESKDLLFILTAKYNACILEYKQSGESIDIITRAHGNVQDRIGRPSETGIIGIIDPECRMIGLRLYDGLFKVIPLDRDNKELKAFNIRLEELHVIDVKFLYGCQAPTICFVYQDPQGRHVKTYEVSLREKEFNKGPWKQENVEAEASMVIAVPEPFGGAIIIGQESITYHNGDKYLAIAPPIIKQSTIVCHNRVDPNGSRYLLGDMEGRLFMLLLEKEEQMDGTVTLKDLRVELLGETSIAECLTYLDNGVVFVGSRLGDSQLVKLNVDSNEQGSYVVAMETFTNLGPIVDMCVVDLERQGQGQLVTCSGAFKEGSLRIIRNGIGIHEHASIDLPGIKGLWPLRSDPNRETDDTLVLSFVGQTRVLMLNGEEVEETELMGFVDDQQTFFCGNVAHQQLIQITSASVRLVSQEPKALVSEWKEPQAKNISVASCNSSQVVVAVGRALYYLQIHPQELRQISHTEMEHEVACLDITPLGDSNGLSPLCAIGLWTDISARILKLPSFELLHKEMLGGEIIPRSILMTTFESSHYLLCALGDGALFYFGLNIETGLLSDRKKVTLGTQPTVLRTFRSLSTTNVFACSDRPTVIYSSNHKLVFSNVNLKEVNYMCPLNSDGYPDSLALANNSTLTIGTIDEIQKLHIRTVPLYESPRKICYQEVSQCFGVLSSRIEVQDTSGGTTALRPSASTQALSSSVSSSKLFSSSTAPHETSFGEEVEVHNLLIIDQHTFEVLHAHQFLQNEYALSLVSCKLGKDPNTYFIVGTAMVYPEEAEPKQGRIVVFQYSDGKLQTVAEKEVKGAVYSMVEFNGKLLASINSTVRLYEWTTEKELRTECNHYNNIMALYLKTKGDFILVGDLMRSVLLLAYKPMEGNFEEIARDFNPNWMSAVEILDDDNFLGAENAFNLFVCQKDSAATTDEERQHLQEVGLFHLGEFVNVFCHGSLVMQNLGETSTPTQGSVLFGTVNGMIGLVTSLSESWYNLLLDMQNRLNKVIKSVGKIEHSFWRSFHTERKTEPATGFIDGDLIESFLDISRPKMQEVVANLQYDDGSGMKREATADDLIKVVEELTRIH
(In western blotting, separated proteins are transferred to a membrane and probed.)

The target of a further experiment is T2, IKZF1 (Homo sapiens, UniProt Q13422+Q96SW2).
T2 construct: endogenous in cells; host or cells: MM1 S (ATCC CRL-2974)
T2 sequence (Q13422 whole entry): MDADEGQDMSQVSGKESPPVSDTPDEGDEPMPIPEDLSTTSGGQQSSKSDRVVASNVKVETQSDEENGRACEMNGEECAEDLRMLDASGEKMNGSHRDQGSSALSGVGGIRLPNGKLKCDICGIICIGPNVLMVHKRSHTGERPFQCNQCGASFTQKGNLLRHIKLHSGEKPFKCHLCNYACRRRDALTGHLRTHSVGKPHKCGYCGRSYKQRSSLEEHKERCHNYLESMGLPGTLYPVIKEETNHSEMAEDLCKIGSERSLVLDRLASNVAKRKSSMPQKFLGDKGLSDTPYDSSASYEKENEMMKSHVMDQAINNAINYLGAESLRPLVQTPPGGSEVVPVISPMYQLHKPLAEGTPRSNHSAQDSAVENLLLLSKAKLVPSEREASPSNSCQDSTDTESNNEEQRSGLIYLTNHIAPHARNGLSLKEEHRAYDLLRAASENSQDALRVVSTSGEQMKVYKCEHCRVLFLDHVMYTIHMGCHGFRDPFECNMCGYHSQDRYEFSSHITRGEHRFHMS
T2 sequence (Q96SW2 whole entry): as the sequence (Q96SW2 whole entry) above
T2 sequence (Q16531 whole entry partner): as the sequence (Q16531 whole entry partner) above
Nature of the experiment: Selectivity western blot assay in MM1 S cells, IKZF1. Also on record: key: A represents no degradation observed at 30 μM; B represents trace degradation at 30 μM (below 20%); C represents weak degradation at 30 μM (below 50%); D represents degradation at 30 μM (>90%); E represents degradation at 3 μM (>90%); F represents degradation at 0.3 μM (>90%). As for the experimental part:
as §1

The target of another experiment is T3, CK1alpha (Homo sapiens, UniProt P48729+Q96SW2).
T3 construct: endogenous in cells; host or cells: MM1 S (ATCC CRL-2974)
T3 sequence (P48729 whole entry): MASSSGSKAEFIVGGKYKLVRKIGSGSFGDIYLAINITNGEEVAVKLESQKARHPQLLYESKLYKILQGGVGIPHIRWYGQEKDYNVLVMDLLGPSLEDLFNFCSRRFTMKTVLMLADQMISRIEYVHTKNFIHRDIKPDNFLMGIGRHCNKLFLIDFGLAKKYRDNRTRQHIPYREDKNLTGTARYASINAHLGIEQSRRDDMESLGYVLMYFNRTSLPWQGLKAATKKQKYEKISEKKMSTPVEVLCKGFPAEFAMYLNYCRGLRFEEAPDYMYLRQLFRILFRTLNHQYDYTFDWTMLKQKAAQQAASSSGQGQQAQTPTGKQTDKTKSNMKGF
T3 sequence (Q96SW2 whole entry): as the sequence (Q96SW2 whole entry) above
T3 sequence (Q16531 whole entry partner): as the sequence (Q16531 whole entry partner) above
Nature of the experiment: Selectivity western blot assay in MM1 S cells, CK1alpha. Also on record: key: A represents no degradation observed at 30 μM; B represents trace degradation at 30 μM (below 20%); C represents weak degradation at 30 μM (below 50%); D represents degradation at 30 μM (>90%); E represents degradation at 3 μM (>90%); F represents degradation at 0.3 μM (>90%). As for the experimental part: as §1

A further experiment has as its target T4, IKZF3 (Homo sapiens, UniProt Q96SW2+Q9UKT9).
T4 construct: endogenous in cells; host or cells: MM1 S (ATCC CRL-2974)
Kind of experiment: Selectivity western blot assay in MM1 S cells, IKZF3. Also noted: key: A represents no degradation observed at 30 μM; B represents trace degradation at 30 μM (below 20%); C represents weak degradation at 30 μM (below 50%); D represents degradation at 30 μM (>90%); E represents degradation at 3 μM (>90%); F represents degradation at 0.3 μM (>90%). How it is done: as §1

T4 sequence (Q9UKT9 whole entry): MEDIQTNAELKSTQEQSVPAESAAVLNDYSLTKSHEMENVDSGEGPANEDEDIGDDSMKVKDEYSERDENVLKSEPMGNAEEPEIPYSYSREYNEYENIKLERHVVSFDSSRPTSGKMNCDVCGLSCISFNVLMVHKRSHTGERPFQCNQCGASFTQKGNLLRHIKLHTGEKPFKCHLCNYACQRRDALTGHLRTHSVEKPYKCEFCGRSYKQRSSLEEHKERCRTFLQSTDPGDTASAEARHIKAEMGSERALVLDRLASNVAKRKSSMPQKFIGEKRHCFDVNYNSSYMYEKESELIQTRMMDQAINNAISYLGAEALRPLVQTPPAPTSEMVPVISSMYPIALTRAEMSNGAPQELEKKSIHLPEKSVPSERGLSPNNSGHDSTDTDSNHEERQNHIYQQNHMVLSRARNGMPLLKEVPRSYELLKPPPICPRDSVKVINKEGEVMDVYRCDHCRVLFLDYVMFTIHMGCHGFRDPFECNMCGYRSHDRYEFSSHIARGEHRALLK
T4 sequence (Q96SW2 whole entry): as the sequence (Q96SW2 whole entry) above
T4 sequence (Q16531 whole entry partner): as the sequence (Q16531 whole entry partner) above
T1 sequence (Q96JP5 whole entry): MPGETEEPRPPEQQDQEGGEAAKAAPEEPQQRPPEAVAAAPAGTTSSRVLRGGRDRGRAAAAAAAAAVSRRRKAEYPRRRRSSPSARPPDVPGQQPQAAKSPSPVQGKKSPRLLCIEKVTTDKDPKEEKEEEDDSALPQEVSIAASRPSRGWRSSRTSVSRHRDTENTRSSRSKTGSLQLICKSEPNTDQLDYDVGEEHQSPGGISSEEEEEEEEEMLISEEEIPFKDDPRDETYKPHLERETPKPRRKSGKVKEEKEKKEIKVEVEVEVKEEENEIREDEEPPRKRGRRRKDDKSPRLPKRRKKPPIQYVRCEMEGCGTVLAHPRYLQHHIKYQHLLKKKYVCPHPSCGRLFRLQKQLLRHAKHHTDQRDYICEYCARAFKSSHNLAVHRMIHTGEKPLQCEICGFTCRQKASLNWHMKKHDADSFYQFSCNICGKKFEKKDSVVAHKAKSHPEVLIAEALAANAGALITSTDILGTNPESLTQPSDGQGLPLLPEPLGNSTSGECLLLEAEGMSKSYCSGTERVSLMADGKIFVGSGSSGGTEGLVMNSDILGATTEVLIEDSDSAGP
T1 sequence (Q96SW2 whole entry): as the sequence (Q96SW2 whole entry) above
T1 sequence (Q16531 whole entry partner): as the sequence (Q16531 whole entry partner) above

For `CCc1ncc(NC(=O)OCc2ccc3c(c2)C(=O)N(C2CCC(=O)NC2=O)C3)cc1C` (centres unmarked) [Compound 249], the ZFP91 degradation result on ZFP91 is reported as “B (B represents trace degradation at 30 μM (below 20%))”. Further, at GSPT1, the GSPT1 degradation result is recorded as “F (F represents degradation at 0.3 μM (>90%))”. Further, on IKZF1, the IKZF1 degradation entry was “A”. Also, at CK1alpha, the CK1alpha degradation result is on record as “B (B represents trace degradation at 30 μM (below 20%))”. For the same molecule, the IKZF3 degradation result at IKZF3 was “A”.
With `CC(C)(C)c1ccc(NC(=O)OCc2ccc3c(c2)C(=O)N(C2CCC(=O)NC2=O)C3)cn1` (centres unmarked) [Compound 243], the GSPT1 degradation result on GSPT1 was “F (F represents degradation at 0.3 μM (>90%))”. Moreover, the IKZF1 degradation result on IKZF1 is reported as “A”. Besides, the CK1alpha degradation result on CK1alpha is on record as “C (C represents weak degradation at 30 μM (below 50%))”. In addition, the IKZF3 degradation entry on IKZF3 was “B (B represents trace degradation at 30 μM (below 20%))”.
Consider `Cc1c(Cl)cc(NC(=O)NCc2ccc3c(c2)C(=O)N(C2CCC(=O)NC2=O)C3)cc1CN1CCOCC1` (centres unmarked) [Compound 82], for which, on ZFP91, the ZFP91 degradation result is recorded as “A”. Moreover, at GSPT1, the GSPT1 degradation entry was “F (F represents degradation at 0.3 μM (>90%))”. In addition, the IKZF1 degradation result on IKZF1 is listed as “A”. In addition, on CK1alpha, the CK1alpha degradation result is on record as “A”. In addition, at IKZF3, the IKZF3 degradation entry is recorded as “A”.
On to `O=C1CCC(N2Cc3ccc(COC(=O)Nc4ccc(N5CCCCC5)nc4)cc3C2=O)C(=O)N1` (centres unmarked) [Compound 215], for which the GSPT1 degradation entry at GSPT1 is listed as “F (F represents degradation at 0.3 μM (>90%))”. At IKZF1, the IKZF1 degradation result is “A”. Moreover, at CK1alpha, the CK1alpha degradation entry is “C (C represents weak degradation at 30 μM (below 50%))”. Besides, the IKZF3 degradation result on IKZF3 is “B (B represents trace degradation at 30 μM (below 20%))”.
`COc1cc(C)c(Cl)cc1NC(=O)OCc1ccc2c(c1)C(=O)N(C1CCC(=O)NC1=O)C2` (centres unmarked) [Compound 201]: on ZFP91, the ZFP91 degradation result is listed as “A”. Besides, the GSPT1 degradation entry at GSPT1 is recorded as “F (F represents degradation at 0.3 μM (>90%))”. For the same molecule, the IKZF1 degradation result at IKZF1 was “A”. On CK1alpha, the CK1alpha degradation entry is on record as “B (B represents trace degradation at 30 μM (below 20%))”. On IKZF3, the IKZF3 degradation entry is on record as “B (B represents trace degradation at 30 μM (below 20%))”.
Regarding `O=C1CCC(N2Cc3ccc(COC(=O)Nc4ccc(-c5ccccc5)nc4)cc3C2=O)C(=O)N1` (centres unmarked) [Compound 242], at GSPT1, the GSPT1 degradation result is reported as “F (F represents degradation at 0.3 μM (>90%))”. Besides, the IKZF1 degradation result at IKZF1 was “A”. Besides, on CK1alpha, the CK1alpha degradation result is recorded as “B (B represents trace degradation at 30 μM (below 20%))”. Also, at IKZF3, the IKZF3 degradation result is on record as “A”.
Consider `Cc1c(Cl)cc(NC(=O)NCc2ccc3c(c2)C(=O)N(C2CCC(=O)NC2=O)C3)cc1CN(C)C` (centres unmarked) [Compound 75], for which, at ZFP91, the ZFP91 degradation entry is “A”. The GSPT1 degradation result at GSPT1 is on record as “E (E represents degradation at 3 μM (>90%))”. Further, on IKZF1, the IKZF1 degradation entry is listed as “A”. The CK1alpha degradation result on CK1alpha is “A”. Moreover, the IKZF3 degradation result at IKZF3 is “A”.
In the case of `Cc1ncc(NC(=O)OCc2ccc3c(c2)C(=O)N(C2CCC(=O)NC2=O)C3)cc1Cl` (centres unmarked) [Compound 206], on GSPT1, the GSPT1 degradation result is given as “F (F represents degradation at 0.3 μM (>90%))”. Also, at IKZF1, the IKZF1 degradation result was “A”. In addition, the CK1alpha degradation entry on CK1alpha is “A”. Besides, on IKZF3, the IKZF3 degradation entry is “B (B represents trace degradation at 30 μM (below 20%))”.
Regarding `O=C1CCC(N2Cc3ccc(CNC(=O)Nc4cccc(CN5CCOCC5)c4)cc3C2=O)C(=O)N1` (centres unmarked) [Compound 105], the ZFP91 degradation entry on ZFP91 is reported as “B (B represents trace degradation at 30 μM (below 20%))”. Also, the GSPT1 degradation entry at GSPT1 was “E (E represents degradation at 3 μM (>90%))”. Also, the IKZF1 degradation entry at IKZF1 was “B (B represents trace degradation at 30 μM (below 20%))”. Also, the CK1alpha degradation result on CK1alpha is reported as “A”. For the same molecule, on IKZF3, the IKZF3 degradation entry is reported as “A”.
In the case of `Cc1ccc(NC(=O)NCc2ccc3c(c2)C(=O)N(C2CCC(=O)NC2=O)C3)c(Cl)c1Cl` (centres unmarked) [Compound 87], the ZFP91 degradation result on ZFP91 is “A”. Besides, the GSPT1 degradation result at GSPT1 is “E (E represents degradation at 3 μM (>90%))”. The IKZF1 degradation result on IKZF1 was “A”. Besides, at CK1alpha, the CK1alpha degradation entry is “A”. Moreover, the IKZF3 degradation entry on IKZF3 is recorded as “A”.
Turning to `Cc1c(Cl)cc(NC(=O)OCc2ccc3c(c2)C(=O)N(C2CCC(=O)NC2=O)C3)cc1OCCN1CCOCC1` (centres unmarked) [Compound 248], the GSPT1 degradation entry at GSPT1 is listed as “F (F represents degradation at 0.3 μM (>90%))”. For the same molecule, on IKZF1, the IKZF1 degradation entry is listed as “A”. The CK1alpha degradation result at CK1alpha is given as “B (B represents trace degradation at 30 μM (below 20%))”. At IKZF3, the IKZF3 degradation result is recorded as “B (B represents trace degradation at 30 μM (below 20%))”.
For `Cc1cc(C)c(NC(=O)NCc2ccc3c(c2)C(=O)N(C2CCC(=O)NC2=O)C3)cc1Cl` (centres unmarked) [Compound 85], the ZFP91 degradation entry at ZFP91 is listed as “A”. In addition, the GSPT1 degradation result at GSPT1 was “E (E represents degradation at 3 μM (>90%))”. Also, the IKZF1 degradation result at IKZF1 is on record as “A”. Moreover, the CK1alpha degradation entry at CK1alpha is “B (B represents trace degradation at 30 μM (below 20%))”. In addition, at IKZF3, the IKZF3 degradation entry is given as “A”.
`CC(C)(C)c1ccc(NC(=O)OCc2ccc3c(c2)C(=O)N(C2CCC(=O)NC2=O)C3)cc1` (centres unmarked) [Compound 247]: the ZFP91 degradation result on ZFP91 was “B (B represents trace degradation at 30 μM (below 20%))”. Also, the GSPT1 degradation result at GSPT1 is reported as “F (F represents degradation at 0.3 μM (>90%))”. For the same molecule, the IKZF1 degradation entry on IKZF1 is “A”. Besides, at CK1alpha, the CK1alpha degradation entry is given as “B (B represents trace degradation at 30 μM (below 20%))”. The IKZF3 degradation result at IKZF3 is reported as “A”.
In the case of `Cc1c(Cl)cc(NC(=O)NCc2ccc3c(c2)C(=O)N(C2CCC(=O)NC2=O)C3)cc1CC1COCOC1` (centres unmarked) [Compound 132], the ZFP91 degradation entry on ZFP91 is “C (C represents weak degradation at 30 μM (below 50%))”. The GSPT1 degradation result at GSPT1 was “F (F represents degradation at 0.3 μM (>90%))”. Besides, the IKZF1 degradation result at IKZF1 was “A”. For the same molecule, the CK1alpha degradation result at CK1alpha is given as “C (C represents weak degradation at 30 μM (below 50%))”. Moreover, the IKZF3 degradation entry on IKZF3 is recorded as “A”.
